Here are results for 10 molecules from patent US12396968B2, “Mitofusin activators having an endocyclic-bonded carbonyl group and methods for use thereof” (priority 2022, dated 2025).

Series [1] in a line: Plasma protein binding by equilibrium dialysis, human. In kind it is in vitro ADME. As to conditions: read-out: Plasma Protein Binding (Bound %) Human (converted). Here is the method:
(§1) In vitro pharmacokinetic analyses were performed in duplicate using standard methods by WuXi AppTec Co. Ltd. (Shanghai, China). Plasma protein binding was measured by equilibrium dialysis; % bound=(1−[free compound in dialysate]/[total compound in retentate])×100. Plasma stability of 2 uM compounds in clarified freeze-thawed plasma was assessed by LC-MS/MS of supernatants after protein precipitation; 120 min data are reported for studies including 0, 10, 30, 60, and 120 min. Liver microsome stability of 1 uM compounds in liver microsomes (0.5 mg/ml) after 0, 5, 10, 20, 30, 60 min. incubation was assessed by LC/MS/MS of reaction extracts.
On the technique in general: In equilibrium dialysis only unbound substance equilibrates across the membrane.

A short description of series [2]: Liver microsome stability, mouse. Type of series: in vitro ADME. Particulars: mouse liver microsomes 0.5 mg/ml, 1 uM compound; read-out: Liver Microsomes (t1/2, minutes) Mouse. As to the method: as §1
On the technique in general: Liver microsomes are a subcellular fraction often used to study metabolism.

The test system of series [3] is mitofusin. The series can be described thus: Dose-response of mitofusin agonist fusogenicity (mitochondrial aspect ratio) in Mfn1- or Mfn2-deficient MEFs. As to conditions: Mfn1-KO or Mfn2-KO MEFs, compounds overnight, mitochondrial aspect ratio indexed to maximal response of Compound 35. Type of series: cell-based, mouse. Here is the method:
Dose-response of mitofusin agonist fusogenicity was performed in Mfn1- or Mfn2-deficient MEFs (Mfn1-KO or Mfn2-KO MEFs) cultured at 37° C. and 5% CO2-95% air. Cells were seeded on day 1 in 6 well plates at a density of 2×10^4 cells per well and compounds added at 9 concentrations (0.5 nM-10 μM dissolved in DMSO) overnight. Mitochondria were then stained with MitoTracker Orange (200 nM; M7510; Invitrogen, Carlsbad, CA, USA). Nuclei were stained with Hoescht (10 μg/ml; Invitrogen, Thermo Fisher Scientific Cat: #H3570). Images were acquired at room temperature on a Nikon Ti Confocal microscope using a 60×1.3 NA oil-immersion objective in Krebs-Henseleit buffer (138 NaCl, […] pH: 7.2-7.5, and 1 mM CaCl2). Laser excitation was 549 nm with emission at 590 nm for MitoTracker Orange and excitation at 306 nm with emission at 405 nm for Hoescht. Images were analyzed using ImageJ and fusogenicity quantified as mitochondrial aspect ratio (length/width), and were indexed to the maximal response elicited by Compound 35, a known mitofusin activator. Response curves were interpolated using the sigmoidal model using Prism 8 software. EC50 values are reported as mean with 95% confidence limits for at least 3 independent experiments.
(§2) Further testing details for the MFN activity and PAMPA are provided in U.S. Patent Applications 2020/0345668 and 2020/0345669, incorporated herein by reference above.

A short description of series [4]: Liver microsome stability, human. In kind it is in vitro ADME. As to conditions: human liver microsomes 0.5 mg/ml, 1 uM compound; read-out: Liver Microsomes (t1/2, minutes) Human. As to the method: as §1
Series [5] can be described thus: Passive artificial blood brain barrier membrane permeability assay (PAMPA-BBB). Type of series: in vitro ADME. As to conditions: 10 μM compound, 1% porcine brain polar lipid extract/dodecane, room temperature. Here is the method: Passive artificial blood brain barrier membrane permeability assay (PAMPA-BBB) were performed using 150 μL of 10 μM compounds (5% DMSO) added to PVDF membranes pre-coated with 5 μL of 1% brain polar lipid extract (Porcine)/dodecane mixture and incubated for 4 h at room temperature with shaking at 300 rpm. Donor and acceptor samples were analyzed by LC-MS/MS.
as §2

Series [6] is described as follows: Plasma protein binding by equilibrium dialysis, mouse. Type of series: in vitro ADME. Particulars: read-out: Plasma Protein Binding (Bound %) Mouse (converted). Here is the method: as §1

For the molecule `O=C(NCCCCCc1ccccc1)C1CCC(O)CC1` (centres unmarked) [Formula 26], the values for the fraction unbound in series [1] and in series [6] were 0.107 and 0.071, respectively. Also, the values for the half-life at 1 uM in series [2] and in series [4] were 102 min and above 145 min, respectively. In series [3], the EC50 (commonly the concentration giving half of the maximal effect) worked out at 9.68 nM. Moreover, in series [5], the Papp – broadly, a coefficient for how fast a substance crosses the barrier – at 4 h, 10 μM was 30.2 ×10⁻⁶ cm/s.
As to `O=C(CCCCCCc1ccccc1)N1CCC(O)CC1` [Formula 7], the fraction unbound was 0.049 in series [1] and 0.043 in series [6]. Besides, the half-life at 1 uM turned out to be 52.5 min in series [2] and 103 min in series [4]. Also, the EC50 in series [3] came out at 30.5 nM. The molecule further gave a Papp at 4 h, 10 μM in series [5] of 145 ×10⁻⁶ cm/s.
Consider `O=C(NC1CC1CCCCc1ccccc1)C1CCC(O)CC1` (centres unmarked) [Formula 30A], for which the concentration giving a half-maximal response (EC50) in series [3] is 5.3 nM. The Papp at 4 h, 10 μM in series [5] is 86.8 ×10⁻⁶ cm/s.
In the case of `O=C(NC1CC(CCCc2ccccc2)C1)C1CCC(O)CC1` (centres unmarked) [Formula 31A], the fraction unbound in series [1] was 0.042; in series [6] it was 0.029. For the same molecule, the half-life at 1 uM in series [2] amounted to 224 min; in series [4], 110 min. Also, the EC50 in series [3] was found to be 9 nM. The Papp at 4 h, 10 μM in series [5] amounted to 95.1 ×10⁻⁶ cm/s.
As to `O=C(NC1CC1OCCCc1ccccc1)C1CCC(O)CC1` (centres unmarked) [Formula 34A], the fraction unbound in series [1] was 0.37; in series [6], 0.221. The half-life at 1 uM in series [2] and in series [4] was above 145 min each time. Also, the EC50 in series [3] came to 26.7 nM. This molecule also returned a Papp at 4 h, 10 μM in series [5] of 10.5 ×10⁻⁶ cm/s.
On to `O=C(NC1CC1OCc1ccccc1)C1CCC(O)CC1` (centres unmarked) [Formula 33A], for which the fraction unbound in series [1] is 0.626; in series [6], 0.361. Further, the half-life at 1 uM in series [2] and in series [4] was above 145 min in each case. Further, in series [3], the 50% effective concentration (EC50) was found to be 10.8 nM. Also, the Papp at 4 h, 10 μM in series [5] stood at 2.28 ×10⁻⁶ cm/s.
Take `O=C(CCCCCc1ccccc1)N1CCC(O)CC1` [Formula 9]: the fraction unbound was 0.163 in series [1] and 0.088 in series [6]. Further, the half-life at 1 uM in series [2] is 82.4 min; in series [4], above 145 min. Also, the EC50 in series [3] was above 10000 nM. In series [5], this molecule showed a Papp at 4 h, 10 μM of 96.1 ×10⁻⁶ cm/s.
As to `O=C(CCCCCCc1ccccc1)N1CCCC(O)C1` (centres unmarked) [Formula 8], the values for the fraction unbound in series [1] and in series [6] were 0.034 and 0.041, respectively. Moreover, the half-life at 1 uM in series [2] was 22.5 min; in series [4], 60.6 min. The EC50 in series [3] was above 10000 nM. The same molecule had a Papp at 4 h, 10 μM in series [5] of 180 ×10⁻⁶ cm/s.
With `O=C(CCCCCCCc1ccccc1)N1CCC(O)CC1` [Formula 10], the fraction unbound in series [1] is 0.014; in series [6] it was 0.011. In addition, the half-life at 1 uM in series [2] came out at 28 min; in series [4], 64.5 min. Further, the concentration for a half-maximal effect (EC50) in series [3] is 12.2 nM. Further, the Papp at 4 h, 10 μM in series [5] turned out to be 143 ×10⁻⁶ cm/s.
Take `O=C(N[C@H]1C[C@@H]1OCCc1ccccc1)[C@H]1CC[C@H](O)CC1` [Formula 32A]: the fraction unbound is 0.535 in series [1] and 0.279 in series [6]. For the same molecule, the half-life at 1 uM in series [2] and in series [4] was above 145 min throughout. Besides, the EC50 in series [3] worked out at 10.5 nM. For the same molecule, the apparent permeability coefficient (Papp) at 4 h, 10 μM in series [5] was 5.43 ×10⁻⁶ cm/s.
